Reference: paper PMC9785231, “Synthesis and Pharmacological Evaluation of Enantiopure N-Substituted Ortho-c Oxide-Bridged 5-Phenylmorphans” (Molecules, 2022)
Like-named read-outs stand apart in the source and are kept apart here.

Columns and labels:
in vitro [1] = conditions: human, microsomes
in vitro [2] = conditions: mouse, microsomes
[3] = Microsomal metabolic stability, human liver microsomes
[4] = Microsomal metabolic stability, mouse liver microsomes; conditions: for Remaining (NCF = 60 min): MLM 0.5, no co-factor (no NADPH); for Remaining (T = 60 min): MLM 0.5, with NADPH
mu-opioid receptor (MOR) = conditions: cited from earlier work
CYP2D6 = biological target: T1, CYP2D6 (Homo sapiens, UniProt P10635); assay: P450 inhibition, human liver microsomal CYP2D6; type: in vitro ADME; conditions: for inhibition at 10 µM: human, human liver microsomes, read-out: 2D6 %Inhibition
T1 construct: selected human liver microsomal cytochrome P450 isozymes (CYP1A2, CYP2C9, CYP2C19, CYP2D6, and CYP3A); from tissue; host or cells: human liver microsomes
T1 sequence (P10635 whole entry): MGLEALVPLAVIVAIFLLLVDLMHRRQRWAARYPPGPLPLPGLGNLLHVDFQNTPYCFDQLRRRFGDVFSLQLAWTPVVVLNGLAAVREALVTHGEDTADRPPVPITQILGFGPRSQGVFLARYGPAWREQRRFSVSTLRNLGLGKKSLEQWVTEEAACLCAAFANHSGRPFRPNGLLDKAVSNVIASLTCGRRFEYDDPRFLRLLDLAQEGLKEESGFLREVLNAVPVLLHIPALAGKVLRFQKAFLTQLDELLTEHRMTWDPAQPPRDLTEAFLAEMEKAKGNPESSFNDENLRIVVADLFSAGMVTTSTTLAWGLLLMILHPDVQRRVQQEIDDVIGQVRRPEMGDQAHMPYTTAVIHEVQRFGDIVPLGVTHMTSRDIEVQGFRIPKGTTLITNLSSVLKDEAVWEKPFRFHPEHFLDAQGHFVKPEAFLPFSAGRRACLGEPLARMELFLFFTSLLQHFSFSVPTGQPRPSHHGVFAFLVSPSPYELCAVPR

CYP2C9 = CYP2C9 (Homo sapiens, UniProt P11712); assay: P450 inhibition, human liver microsomal CYP2C9; conditions: microsomes
CYP2C9, sequence (P11712 whole entry): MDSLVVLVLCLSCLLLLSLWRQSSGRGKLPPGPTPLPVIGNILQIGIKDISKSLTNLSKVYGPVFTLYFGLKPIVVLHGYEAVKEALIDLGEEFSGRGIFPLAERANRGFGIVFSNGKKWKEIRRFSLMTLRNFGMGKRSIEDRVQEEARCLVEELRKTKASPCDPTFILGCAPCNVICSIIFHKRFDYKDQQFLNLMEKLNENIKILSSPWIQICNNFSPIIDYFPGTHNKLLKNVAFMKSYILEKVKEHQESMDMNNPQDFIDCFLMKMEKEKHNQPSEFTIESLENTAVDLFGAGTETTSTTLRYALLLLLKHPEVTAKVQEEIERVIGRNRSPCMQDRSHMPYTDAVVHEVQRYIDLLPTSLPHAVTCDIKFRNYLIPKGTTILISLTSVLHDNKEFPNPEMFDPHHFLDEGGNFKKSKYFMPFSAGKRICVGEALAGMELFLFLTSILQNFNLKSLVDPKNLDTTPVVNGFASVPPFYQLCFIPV

[5] = system: cloned human mu-opioid receptor; conditions: [35S]GTPγS functional assay; cited from earlier work
CYP1A2 = biological target: T2, CYP1A2 (Homo sapiens, UniProt P05177); assay: P450 inhibition, human liver microsomal CYP1A2; conditions: microsomes
T2 sequence (P05177 1-516): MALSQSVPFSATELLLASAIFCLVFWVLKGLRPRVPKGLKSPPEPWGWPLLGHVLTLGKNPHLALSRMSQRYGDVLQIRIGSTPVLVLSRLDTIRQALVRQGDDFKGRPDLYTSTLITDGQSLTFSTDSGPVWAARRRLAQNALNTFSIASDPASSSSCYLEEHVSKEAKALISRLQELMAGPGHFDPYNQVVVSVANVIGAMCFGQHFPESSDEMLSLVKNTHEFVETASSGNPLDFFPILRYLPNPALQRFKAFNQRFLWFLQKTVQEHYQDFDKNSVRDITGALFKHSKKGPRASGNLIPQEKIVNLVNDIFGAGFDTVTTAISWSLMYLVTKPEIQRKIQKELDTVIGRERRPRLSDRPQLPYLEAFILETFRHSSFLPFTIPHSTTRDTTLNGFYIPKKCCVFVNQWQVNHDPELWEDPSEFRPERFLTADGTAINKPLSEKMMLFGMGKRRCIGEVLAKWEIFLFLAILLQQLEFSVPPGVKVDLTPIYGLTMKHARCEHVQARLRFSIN

CYP2C19 = CYP2C19 (Homo sapiens, UniProt P33261); assay: in vitro; conditions: microsomes
CYP2C19, sequence (P33261 whole entry): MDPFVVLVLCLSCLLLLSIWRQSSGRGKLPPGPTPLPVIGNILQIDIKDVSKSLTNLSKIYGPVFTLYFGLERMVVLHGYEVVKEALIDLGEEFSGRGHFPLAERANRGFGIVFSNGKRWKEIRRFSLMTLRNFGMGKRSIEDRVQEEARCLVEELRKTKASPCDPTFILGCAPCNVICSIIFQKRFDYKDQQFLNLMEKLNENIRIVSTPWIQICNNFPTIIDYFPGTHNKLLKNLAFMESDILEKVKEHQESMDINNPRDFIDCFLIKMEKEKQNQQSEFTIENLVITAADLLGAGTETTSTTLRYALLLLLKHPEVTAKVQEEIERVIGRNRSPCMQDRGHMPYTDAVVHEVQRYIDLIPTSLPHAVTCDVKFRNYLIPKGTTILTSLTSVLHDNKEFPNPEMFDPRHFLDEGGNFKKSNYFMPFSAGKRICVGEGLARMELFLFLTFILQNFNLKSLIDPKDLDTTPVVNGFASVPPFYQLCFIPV

CYP3A = assay: P450 inhibition, human liver microsomal CYP3A; type: in vitro ADME; conditions: human liver microsomes, read-out: 3A %Inhibition
μ-opioid receptor (MOR) = biological target: T3, μ-opioid receptor (MOR) (Rattus norvegicus, UniProt P33535); assay: Opioid receptor binding, MOR ([3H]DAMGO), rat brain homogenate; conditions: [3H]DAMGO, whole rat brains excluding cerebellum; read-out: MOR Binding (Ki ± SEM)
T3 construct: All assay tubes contained 100 μL homogenate suspension; from tissue; host or cells: whole rat brain excluding cerebellum, membrane homogenate
T3 sequence (P33535 whole entry): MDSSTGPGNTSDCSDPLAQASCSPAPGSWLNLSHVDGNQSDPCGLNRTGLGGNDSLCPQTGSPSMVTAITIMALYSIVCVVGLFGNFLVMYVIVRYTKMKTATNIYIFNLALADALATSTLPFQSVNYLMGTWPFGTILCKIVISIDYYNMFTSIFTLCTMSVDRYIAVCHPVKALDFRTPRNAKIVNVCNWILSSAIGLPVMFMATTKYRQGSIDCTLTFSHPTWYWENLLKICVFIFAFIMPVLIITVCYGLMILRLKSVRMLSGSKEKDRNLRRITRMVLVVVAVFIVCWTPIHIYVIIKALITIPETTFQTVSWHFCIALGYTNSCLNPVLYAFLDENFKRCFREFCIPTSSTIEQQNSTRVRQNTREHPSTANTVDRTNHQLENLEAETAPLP

δ-opioid receptor (DOR) = biological target: T4, δ-opioid receptor (DOR) (Rattus norvegicus, UniProt P33533); assay: Opioid receptor binding, DOR ([3H]DADLE), rat brain homogenate; conditions: for Ki: [3H]DADLE, whole rat brains excluding cerebellum, read-out: DOR Binding (Ki ± SEM); for fold lower affinity at DOR than at MOR: from Ki of Table 1
T4 construct: All assay tubes contained 100 μL homogenate suspension; from tissue; host or cells: whole rat brain excluding cerebellum, membrane homogenate
T4 sequence (P33533 whole entry): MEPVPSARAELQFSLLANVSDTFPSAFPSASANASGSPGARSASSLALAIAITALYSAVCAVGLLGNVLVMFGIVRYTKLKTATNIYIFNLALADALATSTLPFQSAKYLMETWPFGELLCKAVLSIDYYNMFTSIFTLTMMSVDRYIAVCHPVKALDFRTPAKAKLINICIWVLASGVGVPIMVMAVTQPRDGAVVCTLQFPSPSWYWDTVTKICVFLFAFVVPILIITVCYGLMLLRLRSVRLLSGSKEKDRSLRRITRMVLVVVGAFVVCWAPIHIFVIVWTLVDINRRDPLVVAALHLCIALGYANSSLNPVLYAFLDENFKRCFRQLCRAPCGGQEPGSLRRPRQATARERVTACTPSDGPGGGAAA

κ-opioid receptor (KOR) = biological target: T5, κ-opioid receptor (KOR) (Rattus norvegicus, UniProt P34975); assay: Opioid receptor binding, KOR ([3H]U69,593), rat brain homogenate; conditions: for Ki: [3H]U69,593, whole rat brains excluding cerebellum, read-out: KOR Binding (Ki ± SEM); for fold lower affinity at KOR than at MOR: from Ki of Table 1
T5 construct: All assay tubes contained 100 μL homogenate suspension; from tissue; host or cells: whole rat brain excluding cerebellum, membrane homogenate
T5 sequence (P34975 whole entry): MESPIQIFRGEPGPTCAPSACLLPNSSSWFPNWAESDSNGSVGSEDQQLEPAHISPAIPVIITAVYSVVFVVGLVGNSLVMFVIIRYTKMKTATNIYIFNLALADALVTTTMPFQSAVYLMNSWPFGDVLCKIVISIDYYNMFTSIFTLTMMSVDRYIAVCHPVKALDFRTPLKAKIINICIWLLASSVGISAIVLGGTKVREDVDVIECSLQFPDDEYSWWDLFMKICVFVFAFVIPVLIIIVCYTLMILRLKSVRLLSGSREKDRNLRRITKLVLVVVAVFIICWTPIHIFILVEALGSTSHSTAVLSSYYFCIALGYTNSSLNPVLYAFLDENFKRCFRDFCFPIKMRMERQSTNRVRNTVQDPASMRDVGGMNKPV

[6] = biological target: T6, human δ-opioid receptor (OPRD1) (Homo sapiens, UniProt P41143); conditions: versus EC50 of SNC80; normalized to naltrexone
T6 sequence (P41143 whole entry): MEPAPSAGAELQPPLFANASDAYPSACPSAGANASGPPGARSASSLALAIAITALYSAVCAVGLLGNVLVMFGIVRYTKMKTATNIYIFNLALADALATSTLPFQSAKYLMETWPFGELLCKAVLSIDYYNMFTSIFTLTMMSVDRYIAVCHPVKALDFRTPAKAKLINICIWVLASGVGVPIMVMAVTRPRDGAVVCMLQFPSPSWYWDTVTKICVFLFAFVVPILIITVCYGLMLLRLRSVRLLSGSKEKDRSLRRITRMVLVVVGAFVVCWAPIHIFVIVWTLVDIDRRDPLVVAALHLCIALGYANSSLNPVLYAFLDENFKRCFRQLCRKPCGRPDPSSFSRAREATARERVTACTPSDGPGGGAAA

[7] = biological target: T6, human δ-opioid receptor (OPRD1); assay: cell-based
[8] = biological target: T6, human δ-opioid receptor (OPRD1); assay: Forskolin-induced cAMP accumulation assay, DOR agonist mode
[9] = biological target: T7, human κ-opioid receptor (OPRK1) (Homo sapiens, UniProt P41145); assay: Forskolin-induced cAMP accumulation assay, KOR agonist mode
T7 sequence (P41145 whole entry): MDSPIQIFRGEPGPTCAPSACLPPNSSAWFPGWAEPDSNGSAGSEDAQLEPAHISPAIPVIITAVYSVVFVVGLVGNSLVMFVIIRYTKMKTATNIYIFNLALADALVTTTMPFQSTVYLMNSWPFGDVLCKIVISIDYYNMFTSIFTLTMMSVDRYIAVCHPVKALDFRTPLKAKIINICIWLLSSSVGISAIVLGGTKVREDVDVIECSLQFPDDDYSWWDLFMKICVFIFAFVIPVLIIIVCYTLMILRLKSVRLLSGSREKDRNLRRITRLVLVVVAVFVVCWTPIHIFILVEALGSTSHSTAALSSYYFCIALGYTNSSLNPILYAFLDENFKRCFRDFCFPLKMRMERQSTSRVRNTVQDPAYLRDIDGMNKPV

[10] = biological target: T7, human κ-opioid receptor (OPRK1); assay: Forskolin-induced cAMP accumulation assay, KOR antagonist mode; conditions: for KOR Antagonist %Imax ± SEM: versus EC90 of U50488H, normalized to nor-BNI
[11] = HLM 0.5, no co-factor (no NADPH)
[12] = N-substituted 5-phenylmorphans, read-out: affinity at MOR Ki
[13] = forskolin-induced cAMP accumulation assay

Structure (SMILES): O=C(O)Cc1ccccc1Nc1c(Cl)cccc1Cl [Diclofenac]
- CLint scaled (in vitro [1]): 162 mL/min/kg
- microsomal CLint (in vitro [2]): 35.4 µL/min/mg
- Remaining (NCF = 60 min) [3, 11]: 95.1%
- Remaining (T = 60 min) ([3]; HLM 0.5, with NADPH): 0.4%
- Remaining (NCF = 60 min) [4]: 99.4%
- Remaining (T = 60 min) [4]: 33.5%

Structure (SMILES): Oc1cccc2c1OC1CN(CCc3ccccc3)C3CCCC21C3 (racemic) [(±)-1]
- Ki (mu-opioid receptor (MOR); racemate, read-out: mu-opioid receptor affinity Ki): 1.1 nM

Structure (SMILES): C=C[C@H]1C[N@@]2CC[C@H]1C[C@@H]2[C@@H](O)c1ccnc2ccc(OC)cc12 [Quinidine, reference compound]
- inhibition at 10 µM (CYP2D6): 94.2%

Structure (SMILES): Nc1ccc(S(=O)(=O)Nc2ccnn2-c2ccccc2)cc1 [Sulfaphenazole]
- inhibition at 10 µM (CYP2C9): 85.2%

Structure (SMILES): Oc1cccc(C23CCCC(C2)N(CC2CC2c2ccccc2)CC3)c1 (single isomer, unassigned; (+)) [(+)-2]
- Ki (mu-opioid receptor (MOR); [12]): 3 nM
- mu-opioid antagonist activity Ke [5]: 0.17 nM

Structure (SMILES): O=c1cc(-c2ccccc2)oc2c1ccc1ccccc12 [α-Naphthoflavone, reference compound]
- inhibition at 10 µM (CYP1A2): 88.3%

Structure (SMILES): O=C1CC[C@@]2(O)[C@H]3Cc4ccc(O)c5c4[C@@]2(CCN3CC2CC2)[C@H]1O5 [Naltrexone]
- inhibition at 10 µM (CYP2C19): 0%
- inhibition at 10 µM (CYP2C9): 0%
- Remaining (NCF = 60 min) ([3]; human, microsomes, 1 h): 99.8%
- Remaining (T = 60 min) ([3]; human, microsomes, 1 h): 97.1%
- Remaining (NCF = 60 min) [4]: 84.3%
- Remaining (T = 60 min) [4]: 48.1%

Structure (SMILES): CC(=O)N1CCN(c2ccc(OCC3COC(Cn4ccnc4)(c4ccc(Cl)cc4Cl)O3)cc2)CC1 (stereo not drawn) [Ketoconazole, reference compound]
- inhibition at 10 µM (CYP3A): 98.8%

Structure (SMILES): Oc1cccc2c1O[C@H]1CN(CCc3ccccc3)[C@H]3CCC[C@@]21C3 [(-)-1, (3S,6aR,11aR)-2-Phenethyl-1,3,4,5,6,11a-hexahydro-2H-3,6a-methano-benzofuro[2,3-c]azocin-10-ol]
- Ki (μ-opioid receptor (MOR)): 1.11 ± 0.15 nM
- Ki (δ-opioid receptor (DOR)): 34.8 ± 4.4 nM
- fold lower affinity at DOR than at MOR (δ-opioid receptor (DOR)): approximately 30 fold
- Ki (κ-opioid receptor (KOR)): 13 ± 1.2 nM
- fold lower affinity at KOR than at MOR (κ-opioid receptor (KOR)): about 10 fold
- DOR Antagonist %Imax ± SEM [6]: 86.5 ± 6.4%
- IC50 [7]: 409 ± 138 nM
- EC50 [8]: > 10000 nM
- EC50 [9]: > 10000 nM
- IC50 [10]: 102 ± 65.8 nM
- KOR Antagonist %Imax ± SEM [10]: 109.3 ± 8.1%

Structure (SMILES): Oc1cccc2c1O[C@H]1CN(C[C@H]3C[C@@H]3c3ccccc3)[C@H]3CCC[C@@]21C3 [(+)-17, (3S,6aR,11aR)-2-(((1S,2S)-2-Phenylcyclopropyl)methyl)-1,3,4,5,6,11a-hexahydro-2H-3,6a-methanobenzofuro[2,3-c]azocin-10-ol]
- Ki (μ-opioid receptor (MOR)): 11.9 ± 1.6 nM
- Ki (δ-opioid receptor (DOR)): 49.4 ± 5.1 nM
- fold lower affinity at DOR than at MOR (δ-opioid receptor (DOR)): approximately 4 fold
- Ki (κ-opioid receptor (KOR)): 100 ± 10 nM
- fold lower affinity at KOR than at MOR (κ-opioid receptor (KOR)): about 10 fold
- 2D6 %Inhibition (CYP2D6; 10 µM): 66.8%
- inhibition at 10 µM (CYP2D6): > 50%
- inhibition at 10 µM (CYP3A): 24.7%
- DOR Antagonist %Imax ± SEM [6]: 160.9 ± 4.0%
- inhibition at 10 µM (CYP2C19): 46.6%
- CLint scaled (in vitro [1]): 62 mL/min/kg
- half-life (in vitro [1]): 20.1 min
- microsomal CLint (in vitro [1]): 68.9 µL/min/mg
- CLint scaled (in vitro [2]): 801 mL/min/kg
- half-life (in vitro [2]): 6.9 min
- microsomal CLint (in vitro [2]): 202 µL/min/mg
- IC50 [7]: 487 ± 157 nM
- inhibition at 10 µM (CYP1A2): 6.8%
- inhibition at 10 µM (CYP2C9): 36.6%
- Remaining (NCF = 60 min) [3, 11]: 98.5%
- Remaining (T = 60 min) ([3]; HLM 0.5, with NADPH): 13.0%
- Remaining (NCF = 60 min) [4]: 94.4%
- Remaining (T = 60 min) [4]: 0.2%
- EC50 [8]: > 10000 nM
- functional agonist activity at DOR [8, 13]: did not have functional agonist activity
- EC50 [9]: > 10000 nM
- functional agonist activity at KOR [9, 13]: did not have functional agonist activity
- IC50 [10]: 206 ± 63.2 nM
- KOR Antagonist %Imax ± SEM [10]: 106.1 ± 5.5%

Structure (SMILES): C[C@]12CC[C@H]3[C@@H](CCC4=CC(=O)CC[C@@]43C)[C@@H]1CC[C@@H]2O [Testosterone]
- CLint scaled (in vitro [1]): 96.4 mL/min/kg
- CLint scaled (in vitro [2]): 1720 mL/min/kg
- half-life (in vitro [2]): 3.2 min
- microsomal CLint (in vitro [2]): 435 µL/min/mg
- Remaining (NCF = 60 min) [3, 11]: 86.7%
- Remaining (T = 60 min) ([3]; HLM 0.5, with NADPH): 3.9%
- Remaining (NCF = 60 min) [4]: 97.1%
- Remaining (T = 60 min) [4]: 0.0%

Structure (SMILES): Oc1cccc(C23CCCC(C2)N(CC2CC2c2ccccc2)CC3)c1 (single isomer, unassigned; (-)) [(-)-3]
- Ki (mu-opioid receptor (MOR); [12]): 4 nM
- mu-opioid antagonist activity Ke [5]: 0.3 nM
